Source: the Deep4Chem optical property database
Where “and” joins values, the source holds several entries; their conditions need not be identical. Equal entries are not always repeated. Each block holds one compound with its values, some of them ahead of it.

Assay: solvent given as SMILES

Compound: COc1ccccc1-n1nc(C#N)c(N2CCCC2)n1
emission maximum (in CC#N): 418 nm

Compound: c1ccc(-c2ccc3c4ccc(-c5ccccc5)c5c(-c6ccccc6)ccc(c6ccc(-c7ccccc7)c2c36)c54)cc1
emission maximum (in ClCCl): 520 nm

Compound: Cc1cc(C)c(B(c2ccc(-c3ccc(-c4nc5c6ccccc6c6ccccc6c5[nH]4)cc3)cc2)c2c(C)cc(C)cc2C)c(C)c1
emission maximum (in C1CCOC1): 474 nm | emission maximum (in CC(C)=O): 493 nm | emission maximum (in CS(C)=O): 520 nm | emission maximum (in Cc1ccccc1): 435 nm | emission maximum (in ClCCl): 469 nm

Compound: N#Cc1cc(C#N)cc(-n2c3ccccc3c3cc(-c4ccc5c(c4)c4ccccc4n5-c4cc(C#N)cc(C#N)c4)ccc32)c1
emission maximum (in Cc1ccccc1): 470 nm | emission maximum (in O=P(c1ccccc1)(c1ccccc1)c1ccccc1Oc1ccccc1P(=O)(c1ccccc1)c1ccccc1): 470 nm

Compound: CCOC(CN1C(=O)C2=C(c3ccsc3)N(CC(OCC)OCC)C(=O)C2=C1c1ccsc1)OCC
emission maximum (in ClC(Cl)Cl): 524 nm

Compound: N#CC1=C(c2ccc(-c3cccs3)s2)CCC1
emission maximum (in C1CCOC1): 441 nm | emission maximum (in CC#N): 445 nm | emission maximum (in CCCCCC): 428 nm | emission maximum (in CCO): 443 nm | emission maximum (in OCCOCCO): 455 nm | emission maximum (in c1ccncc1): 450 nm

Compound: c1ccc(-c2nc(-c3ccccc3)nc(-c3ccc(-n4c5ccccc5c5ccc6c(c7ccccc7n6-c6ccccc6)c54)cc3)n2)cc1
emission maximum (in Cc1ccccc1): 466.56 nm and 461 nm | emission maximum (in O=P(c1ccccc1)(c1ccccc1)c1ccc2oc3ccc(P(=O)(c4ccccc4)c4ccccc4)cc3c2c1): 479 nm

Compound: CCn1c2ccccc2c2cc(/C=C/C(=O)c3ccc4c(c3)c3cc(C(=O)/C=C/c5ccc6c(c5)c5ccccc5n6CC)ccc3n4CC)ccc21
emission maximum (in C1CCCCC1): 430 nm | emission maximum (in C1CCOC1): 474 nm | emission maximum (in CC#N): 491 nm | emission maximum (in CC(C)=O): 476 nm | emission maximum (in CCO): 521 nm | emission maximum (in CCOCC): 475 nm | emission maximum (in CN(C)C=O): 487 nm | emission maximum (in CO): 542 nm | emission maximum (in CS(C)=O): 493 nm | emission maximum (in ClC(Cl)(Cl)Cl): 454 nm | emission maximum (in ClC(Cl)Cl): 475 nm

Compound: Cc1cc(C)n2c1C=C1c3ccccc3C(c3[nH]c4ccccc4c3C)=[N+]1[B-]2(F)F
emission maximum (in C1CCOC1): 628 nm | emission maximum (in CC#N): 623 nm | emission maximum (in CCCCCC): 626 nm | emission maximum (in CO): 624 nm | emission maximum (in Cc1ccccc1): 636 nm | emission maximum (in ClCCl): 631 nm

Compound: CCC1=C(C)C2=Cc3c4ccccc4c4n3[B-](C)(Oc3ccccc3-4)[N+]2=C1C (configuration not stated)
emission maximum (in CC#N): 630 nm | emission maximum (in CCCCCC): 632 nm | emission maximum (in Cc1ccccc1): 636 nm | emission maximum (in ClCCl): 635 nm

Compound: Cc1cccc(-c2c3ccccc3cc3ccccc23)n1
emission maximum (in ClCCl): 418 nm

Compound: CCC1=C(C)C2=C(C)c3cccn3[B-](F)(F)[N+]2=C1C
emission maximum (in C1CCCCC1): 515 nm | emission maximum (in CC(C)=O): 512.5 nm | emission maximum (in CCO): 513.5 nm | emission maximum (in CCOC(C)=O): 512.5 nm | emission maximum (in CO): 512.5 nm | emission maximum (in OCC(F)(F)F): 511 nm

Compound: c1cc2ccc3ccc(-n4c5ccccc5c5ccccc54)c4ccc(c1)c2c34
emission maximum (in CCCCCC): 407 nm | emission maximum (in CCO): 398 nm | emission maximum (in CCOC(C)=O): 398 nm | emission maximum (in ClCCl): 399 nm

Compound: CCCCOC(=O)c1cc(Cl)c2c3c(Cl)cc4c5c(cc(Cl)c(c6c(Cl)cc(C(=O)OCCCC)c1c26)c53)C(=O)N(c1c(C(C)C)cccc1C(C)C)C4=O
emission maximum (in Cc1ccccc1): 530 nm

Compound: CCn1c2ccccc2c2cc(-c3cc(-c4ccc5c(c4)c4ccccc4n5CC)nc(-c4ccc(C#N)cc4)n3)ccc21
emission maximum (in C1CCOC1): 408 nm | emission maximum (in CCOC(C)=O): 408 nm | emission maximum (in CN(C)C=O): 422 nm | emission maximum (in Cc1ccccc1): 388 nm | emission maximum (in ClCCl): 417 nm

Compound: COc1ccc(-c2nc3ccccc3nc2-c2ccc(OC)cc2)cc1
emission maximum (in C1CCOC1): 432 nm | emission maximum (in CC#N): 435 nm | emission maximum (in CCCCCC): 423 nm | emission maximum (in CN(C)C=O): 432 nm | emission maximum (in Cc1ccccc1): 426 nm | emission maximum (in ClC(Cl)Cl): 430 nm

Compound: Nc1ccccc1
emission maximum (in C1CCCCC1): 323.42 nm

Compound: CC[N+](CC)=c1ccc2c(-c3ccccc3C(=O)O)c3oc4cc(N)ccc4c3oc-2c1
emission maximum (in CCO): 622 nm | emission maximum (in ClCCl): 617 nm | emission maximum (in O): 634 nm

Compound: COC(=O)C1=C(C(=O)OC)C2(c3cc(Cl)ccc3-c3c(Cl)cc(Cl)cc32)C2(/C=C/c3ccccc3)c3cc(OC)c(OC)cc3CCN12 (configuration not stated)
emission maximum (in ClCCl): 487 nm

Compound: COC(=O)c1ccc(C2=C3C=CC(C)=[N+]3[B-](F)(F)n3c(C)ccc32)cc1
emission maximum (in C1CCCCC1): 533 nm | emission maximum (in C1CCOC1): 536 nm | emission maximum (in CC#N): 531 nm | emission maximum (in CCOC(C)=O): 533 nm | emission maximum (in CO): 533 nm | emission maximum (in Cc1ccccc1): 538 nm | emission maximum (in ClC(Cl)Cl): 538 nm

Compound: Clc1cccc(-c2nc3sc4ccccc4c3s2)c1
emission maximum (in CS(C)=O): 420 nm

Compound: CN(C)CCCN1c2ccccc2Sc2ccccc21
emission maximum (in CC#N): 444 nm | emission maximum (in CO): 444 nm | emission maximum (in O): 452 nm

Compound: CC(=O)c1c2c(cc3c(N(C)C)cccc13)CCC2
emission maximum (in C1CCCCC1): 480 nm | emission maximum (in C1CCOC1): 543 nm | emission maximum (in C1COCCO1): 534 nm | emission maximum (in CC#N): 590 nm | emission maximum (in CCO): 634 nm | emission maximum (in CS(C)=O): 598 nm | emission maximum (in Cc1ccccc1): 520 nm | emission maximum (in ClC(Cl)Cl): 562 nm | emission maximum (in ClCCl): 562 nm

Compound: CCN(C(C)=O)c1cc2c(cc1C)C(c1ccccc1C(=O)O)=C1CCCC(/C=C/C3=[N+](C)c4ccccc4C3(C)C)=C1O2
emission maximum (in CCO): 687 nm

Compound: CCC1=C(C)C2=Cc3ccccc3B(O)N2C1=O
emission maximum (in CC#N): 411 nm | emission maximum (in CCCCCC): 405 nm | emission maximum (in CO): 411 nm | emission maximum (in CS(C)=O): 416 nm | emission maximum (in ClC(Cl)Cl): 418 nm

Compound: Cc1ccc2c(c1)c1cc(C)ccc1n2-c1c(-n2c3ccccc3c3ccccc32)c(C#N)c(-n2c3ccccc3c3ccccc32)c(-n2c3ccc(C)cc3c3cc(C)ccc32)c1-n1c2ccccc2c2ccccc21
emission maximum (in Cc1ccccc1): 480 nm

Compound: O=c1c2cc(F)ccc2nc2n1[B-](F)(F)[n+]1ccccc1-2
emission maximum (in CC#N): 437 nm | emission maximum (in ClCCl): 438 nm

Compound: CN(C)c1ccc2c3c(ccc2c1)CCCC3=O
emission maximum (in C1CCCCC1): 449 nm | emission maximum (in CC#N): 523 nm | emission maximum (in CC(C)O): 520 nm | emission maximum (in CCC(C)=O): 517 nm | emission maximum (in CCO): 495 nm | emission maximum (in CCOC(C)=O): 506 nm | emission maximum (in CS(C)=O): 538 nm | emission maximum (in Cc1ccccc1): 478 nm | emission maximum (in ClCCl): 511 nm | emission maximum (in Clc1ccccc1): 498 nm

Compound: CC(C)(C)NC1=C2C=CC=[N+]2[B-](F)(F)n2cccc21
emission maximum (in C1CCCCC1): 503 nm | emission maximum (in CC(C)=O): 492 nm | emission maximum (in CCO): 494 nm | emission maximum (in CCOC(C)=O): 498 nm | emission maximum (in CO): 491 nm | emission maximum (in OCC(F)(F)F): 497.5 nm

Compound: N#Cc1ccc2c(c1)C1(c3cc(C#N)ccc3-2)c2ccccc2N(c2ccccc2)c2ccccc21
emission maximum (in Cc1ccccc1): 492.18 nm

Compound: COc1ccc(-c2csc(-c3ccncc3)n2)cc1
emission maximum (in CC#N): 560 nm | emission maximum (in CCO): 457 nm | emission maximum (in CN(C)C=O): 451 nm | emission maximum (in CS(C)=O): 455 nm | emission maximum (in Cc1ccccc1): 415 nm | emission maximum (in ClCCl): 548 nm

Compound: N#Cc1c(-n2c3ccccc3c3ccccc32)c(-n2c3ccccc3c3ccccc32)cc(-n2c3ccccc3c3ccccc32)c1-n1c2ccccc2c2ccccc21
emission maximum (in CCCCCC): 439.08 nm | emission maximum (in CCO): 468.52 nm | emission maximum (in Cc1ccccc1): 442 nm | emission maximum (in ClCCl): 456.64 nm

Compound: Cc1cccc(-c2nc3sc4ccccc4c3s2)c1
emission maximum (in CS(C)=O): 412 nm

Results, then the compound that gave them:

emission maximum (in ClC(Cl)Cl): 434 nm
Compound: O[Si](c1c2ccccc2cc2ccccc12)(c1c2ccccc2cc2ccccc12)c1c2ccccc2cc2ccccc12

emission maximum (in C1CCCCC1): 395 nm
Compound: CCCC1(CCC)c2cc(-c3ccc(OC)cc3)ccc2-c2ccc(-c3ccc4c(c3)C(CCC)(CCC)c3cc(-c5ccc(OC)cc5)ccc3-4)cc21

emission maximum (in CC#N): 472 nm
Compound: CN(C)c1ccc(-c2nc3nccnc3n2-c2ccc(N(C)C)cc2)cc1

emission maximum (in CCO): 592 nm
Compound: CCOC(=O)CCCCCn1c2ccc(OC)cc2c(=O)c2cc3c(cc21)c(=O)c1cc(OC)ccc1n3CCCCCC(=O)OCC

emission maximum (in ClCCl): 664 nm
Compound: F[B-]1(F)n2c(c3ccccc3c2-c2ccccc2)C(c2ccccc2)=C2c3ccccc3C(c3ccccc3)=[N+]21

emission maximum (in ClC(Cl)Cl): 513 nm
Compound: COc1ccc(-n2c3c4ccccc4nc(-c4ccc(C#N)cc4)c3c3c2c2c(-c4ccc(C#N)cc4)nc4ccccc4c2n3-c2ccc(OC)cc2)cc1

emission maximum (in C1CCOC1): 469 nm
Compound: CC1(C)c2ccccc2-c2ccc(N(c3ccccc3)c3ccc4c(c3)C(C)(C)c3cc(-c5cc6ccccc6c6c5oc5ccccc56)ccc3-4)cc21

emission maximum (in ClCCl): 652 nm
Compound: COc1ccccc1C1=[N+]2C(=C(c3ccccc3)c3c4ccccc4c(-c4ccccc4OC)n3[B-]2(F)F)c2ccccc21

emission maximum (in ClCCl): 577 nm
Compound: CC1=C2C=CC(c3ccccc3)=[N+]2[B-](F)(F)n2c1ccc2-c1ccccc1

emission maximum (in C1CCOC1): 429 nm
Compound: COc1ccc(-n2c(-c3ccc(-c4cncc5ccccc45)cc3)nc3c4ccccc4c4ccccc4c32)cc1

emission maximum (in CC#N): 539 nm
Compound: O=c1oc2ccccc2cc1/C=C/c1ccc([N+](=O)[O-])cc1

emission maximum (in ClCCl): 606 nm
Compound: CCCCCCOC(=O)/C=C/C1=CC2=C(c3c(C)cc(C)cc3C)c3cc(/C=C/C(=O)OCCCCCC)cn3[B-](F)(F)[N+]2=C1

emission maximum (in C1CCCCC1): 328 nm | emission maximum (in CC#N): 348 nm | emission maximum (in CO): 349 nm | emission maximum (in O): 350 nm
Compound: CCOC(=O)CCOc1ccc(C(c2c(C)[nH]c3ccccc23)c2c(C)[nH]c3ccccc23)cc1

emission maximum (in ClCCl): 506 nm
Compound: COc1ccc(/C=C/C2=CC(c3ccccc3)=[O+][B-](F)(F)O2)cc1

emission maximum (in ClC(Cl)Cl): 618 nm
Compound: Cc1cc(C)c(C2=C3C=CC(c4ccc5ccccc5c4)=[N+]3[B-](F)(F)n3c2ccc3-c2ccc3ccccc3c2)c(C)c1

emission maximum (in ClCCl): 574 nm
Compound: Clc1ccccc1N1c2c(sc3ccccc23)Sc2sc3ccccc3c21

emission maximum (in ClC(Cl)Cl): 525 nm
Compound: N#CC1=CC(c2ccccc2)=CC(C#N)=P1(c1ccccc1)c1ccccc1

emission maximum (in CC#N): 543 nm
Compound: Cc1ccc2c(nc3c(=O)n(C)c(=O)nc-3n2C)c1C

emission maximum (in CCO): 652 nm | emission maximum (in O): 652 nm
Compound: CC/[NH+]=c1\cc2oc3cc(NCCOC(=O)C(NC(=O)OC(C)(C)C)C(C)C)c4ccccc4c3nc-2cc1C (configuration not stated)
